Reference: patent US20250313548A1 (Actio Biosciences, Inc., priority 2023, published 2025)

Each compound was assayed against human, KCNT1 (Homo sapiens (Human), UniProt Q5JUK3) (assay: FLIPR Tl/K Flux Assay). Conditions: HEK293 cells stably expressing human KCNT1; Tl+ flux stimulated with EC80 of agonist Loxapine.
Format: cell-based
Experimental: HEK293 cells stably expressing human, KCNT1 were cultured in DMEM, 10% FBS, 100 U/mL penicillin-streptomycin and […] puromycin for selection purposes. One day before the assay, cells were detached using TrypLE™ Express and counted using a cell counter. Only cells with >85% viability were used for the assay. […] The cells were incubated overnight at 37° C., 5% (v/v) CO2.
On the day of the assay, the reagents were prepared following the FLIPR® Potassium Assay Kit manual: prepare 2× dye solution, dilute the dye with assay buffer (20 mM HEPES in 1× HBSS, PH7.4), addition of probenecid to a final concentration of 5 mM, and vortexed vigorously for 1-2 minutes. The cell plate was flicked to remove medium and tapped on paper towels to remove excess media. […] The cell plate was moved to a plate shaker, agitated at 600 rpm for two minutes, and then incubated at 25° C. for one hour.
The compounds were prepared in DMSO and transferred to a 384-well compound plate (PP, low binding), referred to as a source plate. Reference agonist (300 nM) compound and test inhibitor (10 mM) compounds were added to the compound plate and a 4-fold serial dilution was performed in DMSO. Using an ECHO dispenser, compounds were dispensed at 90 nL/well from the source plate to a 384-well compound plate (PP, low binding). After the dispensing was complete, 30 µL/well assay buffer was added to the compound plate and mixed for two minutes on a plate shaker. The cell plate, compound plate, and tips were loaded into the FLIPR instrument, and a transfer of 10 μl of 3× compound to the cell plate was initiated. The treated cell plate was kept at in the dark at 25° C. for 30 minutes. Chloride-free stimulation buffer containing 4× 2 mM Tl+ and 4×EC80 of agonist Loxapine was loaded into a 384-well compound plate (PP, low binding). After the 30-minute incubation, the cell plate, compound plate containing stimulation buffer, and FLIPR tips were loaded into the FLIPR instrument. After a baseline read, the FLIPR initiates a transfer of 10 μL of stimulation buffer containing Loxapine to the cell plate. The plate was read for 160 sec with 1 second interval reads to obtain the data.
The normalized fluorescence reading (RFU) was calculated as shown follow, while Fmax and Fmin stand for maximum and minimum of signal during defined time window. The IC50 was calculated by fitting % inhibition against log of compound concentrations with Hill equation using XLfit.

Sequence of human, KCNT1 (Q5JUK3 whole entry): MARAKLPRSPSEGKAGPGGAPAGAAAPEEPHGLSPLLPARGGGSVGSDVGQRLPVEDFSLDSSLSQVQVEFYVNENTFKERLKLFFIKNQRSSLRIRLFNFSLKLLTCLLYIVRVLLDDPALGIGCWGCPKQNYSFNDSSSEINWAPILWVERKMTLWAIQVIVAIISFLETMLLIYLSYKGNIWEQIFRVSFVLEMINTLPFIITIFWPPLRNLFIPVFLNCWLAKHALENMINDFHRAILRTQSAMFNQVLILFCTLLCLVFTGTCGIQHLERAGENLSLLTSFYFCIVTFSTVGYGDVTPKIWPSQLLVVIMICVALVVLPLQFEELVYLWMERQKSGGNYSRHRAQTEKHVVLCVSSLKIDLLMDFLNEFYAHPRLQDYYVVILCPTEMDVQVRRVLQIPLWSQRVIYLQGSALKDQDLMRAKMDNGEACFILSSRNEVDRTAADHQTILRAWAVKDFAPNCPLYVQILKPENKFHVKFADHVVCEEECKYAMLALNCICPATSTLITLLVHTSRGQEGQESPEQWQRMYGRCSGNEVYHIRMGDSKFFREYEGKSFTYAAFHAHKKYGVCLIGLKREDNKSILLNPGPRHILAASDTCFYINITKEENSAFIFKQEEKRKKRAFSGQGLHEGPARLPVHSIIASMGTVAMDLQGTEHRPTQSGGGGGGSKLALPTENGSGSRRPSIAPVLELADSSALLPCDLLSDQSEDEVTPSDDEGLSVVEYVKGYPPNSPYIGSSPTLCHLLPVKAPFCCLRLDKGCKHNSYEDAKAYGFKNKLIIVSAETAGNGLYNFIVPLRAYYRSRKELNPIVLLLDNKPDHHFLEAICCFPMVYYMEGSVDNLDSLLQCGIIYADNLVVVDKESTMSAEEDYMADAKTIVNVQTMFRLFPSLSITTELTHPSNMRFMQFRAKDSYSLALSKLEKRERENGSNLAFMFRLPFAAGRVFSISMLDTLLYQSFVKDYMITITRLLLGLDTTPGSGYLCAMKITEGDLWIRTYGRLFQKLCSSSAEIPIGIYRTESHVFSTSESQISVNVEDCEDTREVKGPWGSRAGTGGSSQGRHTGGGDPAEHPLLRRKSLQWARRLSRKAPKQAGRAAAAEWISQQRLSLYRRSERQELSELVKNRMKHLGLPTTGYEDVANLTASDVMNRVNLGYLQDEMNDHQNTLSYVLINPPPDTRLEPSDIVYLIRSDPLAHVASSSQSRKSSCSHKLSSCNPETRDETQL

Compound	IC50 [nM]
COc1cc(-c2cc3n(n2)CC[C@@H]3NC(=O)c2cn(C(F)(F)F)nc2C)ccn1 [Compound I-240a, (S)-N-(2-(2-Methoxypyridin-4-yl)-5,6-dihydro-4H-pyrrolo[1,2-b]pyrazol-4-yl)-3-methyl-1-(trifluoromethyl)-1H-pyrazole-4-carboxamide]	< 250
CCOc1cc(C(=O)N[C@H]2CCn3nc(-c4cc(C(F)(F)F)ncc4F)cc32)ccn1 [Compound I-318a, (S)-2-Ethoxy-N-(2-(5-fluoro-2-(trifluoromethyl)pyridin-4-yl)-5,6-dihydro-4H-pyrrolo[1,2-b]pyrazol-4-yl)isonicotinamide]	< 250
N#Cc1ccc(F)c(C(=O)N[C@H]2CCCn3nc(-c4ccnc(C(F)(F)F)c4)cc32)c1 [Compound I-278a, (S)-5-Cyano-2-fluoro-N-(2-(2-(trifluoromethyl)pyridin-4-yl)-4,5,6,7-tetrahydropyrazolo[1,5-a]pyridin-4-yl)benzamide]	< 250
Cn1nc(OC2CC2)cc1C(=O)N[C@H]1CCCn2nc(-c3ccnc(C(F)(F)F)c3)cc21 [Compound I-370a]	< 250
Cn1nc(C(F)(F)F)cc1C(=O)NC1CCCc2nn(-c3ccc(=O)[nH]c3)cc21 (racemic) [Compound I-33, (rac)-1-Methyl-N-(2-(6-oxo-1,6-dihydropyridin-3-yl)-4,5,6,7-tetrahydro-2H-indazol-4-yl)-3-(trifluoromethyl)-1H-pyrazole-5-carboxamide]	> 1000
Cc1cc(C(=O)N[C@@H]2CCc3nn(-c4ccnc(C(F)(F)F)c4)cc32)cc(C(F)(F)F)c1 [Compound I-373b]	< 250
Cn1nc(C(F)(F)F)cc1C(=O)N[C@H]1CCCc2cc(-c3ccnc(C(F)(F)F)c3)[nH]c21 [Compound I-89a, (S)-1-Methyl-3-(trifluoromethyl)-N-(2-(2-(trifluoromethyl)pyridin-4-yl)-4,5,6,7-tetrahydro-1H-indol-7-yl)-1H-pyrazole-5-carboxamide]	> 1000
Cn1nc(C(F)(F)F)cc1C(=O)N[C@H]1CCCc2nc(-c3ccnc(C(F)(F)F)c3)sc21 [Compound I-82a]	< 250
COc1cc(F)cc(C(=O)N[C@H]2CCc3nn(-c4ccnc(C(F)(F)F)c4)cc32)c1 [Compound I-561a, (S)-3-Fluoro-5-methoxy-N-(2-(2-(trifluoromethyl)pyridin-4-yl)-2,4,5,6-tetrahydrocyclopenta[c]pyrazol-4-yl)benzamide]	< 250
O=C(N[C@@H]1CCc2nn(-c3ccnc(C(F)(F)F)c3)cc21)C1CCC(F)(F)CC1 [Compound I-106b]	> 1000
O=C(N[C@H]1CCn2nc(-c3ccnc(C(F)(F)F)c3)cc21)c1cc(Cl)cc(C(F)(F)F)c1 [Compound I-451a]	< 250
COc1cc(-c2nc3c(o2)CCC[C@@H]3NC(=O)c2cc(C)cc(C(F)(F)F)c2)ccn1 [Compound I-248a]	< 250
O=C(N[C@H]1CCn2nc(-c3ccnc(C(F)(F)F)c3)cc21)c1cc(F)cc(F)c1 [Compound I-120a, (S)-3,5-difluoro-N-(2-(2-(trifluoromethyl)pyridin-4-yl)-5,6-dihydro-4H-pyrrolo[1,2-b]pyrazol-4-yl)benzamide]	< 250
O=C(NC1CCCc2nn(-c3ccnc(C(F)(F)F)c3)cc21)c1ccccc1 (racemic) [Compound I-13, (rac)-N-(2-(2-(Trifluoromethyl)pyridin-4-yl)-4,5,6,7-tetrahydro-2H-indazol-4-yl)benzamide]	< 250
CC(C)(O)c1cc(F)cc(C(=O)N[C@H]2CCc3nn(-c4ccnc(C(F)(F)F)c4)cc32)c1 [Compound I-563a, (S)-3-Fluoro-5-(2-hydroxypropan-2-yl)-N-(2-(2-(trifluoromethyl)pyridin-4-yl)-2,4,5,6-tetrahydrocyclopenta[c]pyrazol-4-yl)benzamide]	< 250
COc1cc(C(=O)N[C@H]2CCn3nc(-c4cc(C(F)(F)F)ncc4F)cc32)ccn1 [Compound I-145a, (S)—N-(2-(5-Fluoro-2-(trifluoromethyl)pyridin-4-yl)-5,6-dihydro-4H-pyrrolo[1,2-b]pyrazol-4-yl)-2-methoxyisonicotinamide]	< 250
N#Cc1cc(Cl)cc(C(=O)N[C@H]2CCCn3nc(-c4ccnc(C(F)(F)F)c4)cc32)c1 [Compound I-458a]	< 250

Compound	IC50 [nM]
Cn1nc(C(F)(F)F)nc1C(=O)N[C@H]1CCc2nn(-c3ccnc(C(F)(F)F)c3)cc21 [Compound I-308a, (S)-1-Methyl-3-(trifluoromethyl)-N-(2-(2-(trifluoromethyl)pyridin-4-yl)-2,4,5,6-tetrahydrocyclopenta[c]pyrazol-4-yl)-1H-1,2,4-triazole-5-carboxamide]	< 250
N#Cc1cccc(C(=O)N[C@H]2CCn3cc(-c4ccnc(C(F)(F)F)c4)cc32)c1 (stereo in doubt) [Compound I-276a, 3-Cyano-N-(6-(2-(trifluoromethyl)pyridin-4-yl)-2,3-dihydro-1H-pyrrolizin-1-yl)benzamide]	< 250
O=C(N[C@@H]1CCc2nn(-c3ccnc(C(F)(F)F)c3)cc21)c1cc(Cl)cc(Cl)c1 [Compound I-99b]	500 to 1000
COCc1cc(C(=O)NC2CCCc3nn(-c4ccnc(C(F)(F)F)c4)cc32)n(C)n1 (racemic) [Compound I-23, (rac)-3-(Methoxymethyl)-1-methyl-N-(2-(2-(trifluoromethyl)pyridin-4-yl)-4,5,6,7-tetrahydro-2H-indazol-4-yl)-1H-pyrazole-5-carboxamide]	> 1000
O=C(N[C@H]1CCn2nc(-c3cc(C(F)(F)F)ncc3F)cc21)c1ccn2nccc2c1 [Compound I-549a]	< 250
Cc1cc(F)cc(C(=O)N[C@@H]2CCc3nn(-c4ccnc(C(F)(F)F)c4)cc32)c1 [Compound I-384b]	< 250
Cn1nc(C(F)(F)F)cc1C(=O)N[C@H]1CCc2nc(-c3ccnc(C(F)(F)F)c3)ccc21 [Compound I-134a, (S)-1-Methyl-3-(trifluoromethyl)-N-(2-(2-(trifluoromethyl)pyridin-4-yl)-6,7-dihydro-5H-cyclopenta[b]pyridin-5-yl)-1H-pyrazole-5-carboxamide]	< 250
Cn1nc(C(F)(F)F)cc1C(=O)N[C@@H]1CCCCn2nc(-c3ccnc(C(F)(F)F)c3)cc21 [Compound I-385b]	250 to 500
O=C(N[C@H]1CCn2nc(-c3ccnc(C4CC4)c3)cc21)c1cc2cccnn2c1 [Compound I-279a, (S)-N-(2-(2-Cyclopropylpyridin-4-yl)-5,6-dihydro-4H-pyrrolo[1,2-b]pyrazol-4-yl)pyrrolo[1,2-b]pyridazine-6-carboxamide]	< 250
Cn1nc(C2CC2)cc1C(=O)N[C@H]1CCCn2nc(-c3ccnc(C(F)(F)F)c3)cc21 [Compound I-347a]	< 250
N#Cc1cccc(C(=O)N[C@H]2CCn3nc(-c4ccnc(C5CC5)c4)cc32)c1 [Compound I-310a, (S)-3-Cyano-N-(2-(2-cyclopropylpyridin-4-yl)-5,6-dihydro-4H-pyrrolo[1,2-b]pyrazol-4-yl)benzamide]	< 250
Cc1cc(-c2cc3n(n2)CCC[C@@H]3NC(=O)c2cc(C(F)(F)F)nn2C)cc(C2CC2)n1 [Compound I-315a, (S)-N-(2-(2-Cyclopropyl-6-methylpyridin-4-yl)-4,5,6,7-tetrahydropyrazolo[1,5-a]pyridin-4-yl)-1-methyl-3-(trifluoromethyl)-1H-pyrazole-5-carboxamide]	< 250
O=C(N[C@H]1CCn2nc(-c3cc(C(F)(F)F)ncc3F)cc21)C12CC(F)(C1)C2 [Compound I-552a, (S)-3-Fluoro-N-(2-(5-fluoro-2-(trifluoromethyl)pyridin-4-yl)-5,6-dihydro-4H-pyrrolo[1,2-b]pyrazol-4-yl)bicyclo[1.1.1]pentane-1-carboxamide]	< 250
Cn1nc(C(F)(F)F)cc1C(=O)N[C@H]1CCCn2nc(-c3ccnc(CO)c3)cc21 [Compound I-322a, (S)—N-(2-(2-(Hydroxymethyl)pyridin-4-yl)-4,5,6,7-tetrahydropyrazolo[1,5-a]pyridin-4-yl)-1-methyl-3-(trifluoromethyl)-1H-pyrazole-5-carboxamide]	> 1000
COc1cc(C(=O)N[C@H]2CCn3nc(-c4cc(OC)ncc4F)cc32)ccn1 [Compound I-560a, (S)-N-(2-(5-Fluoro-2-methoxypyridin-4-yl)-5,6-dihydro-4H-pyrrolo[1,2-b]pyrazol-4-yl)-2-methoxyisonicotinamide]	< 250
CCc1cc(C#N)cc(C(=O)N[C@H]2CCCn3nc(-c4ccnc(C(F)(F)F)c4)cc32)c1 [Compound I-245a, (S)-3-Cyano-5-ethyl-N-(2-(2-(trifluoromethyl)pyridin-4-yl)-4,5,6,7-tetrahydropyrazolo[1,5-a]pyridin-4-yl)benzamide]	< 250
